Experiments:
[1] = test system: vancomycin-resistant enterococci (VRE); assay: MIC, broth micro-dilution (CLSI); assay type: cell-based, enterococci (porcine isolates)
[2] = test system: Enterococcus faecalis ATCC 29212; assay: MIC, broth micro-dilution (CLSI), control strain; assay type: cell-based
Summary of the method: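 MICs by CLSI broth micro-dilution, in duplicate, using serial two-fold dilutions starting at 128 μg/ml. Against Gram-negative species including N. meningitidis, MICs were measured with or without 0.08 mM-20 mM EDTA in a standard checkerboard. MIC50, MIC90 and range were derived per isolate set.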

[3] = test system: S. pneumoniae D39; assay: Minimum bactericidal concentration (MBC); assay type: cell-based; conditions: Streptococcus pneumoniae
[4] = test system: S. pneumoniae D39; assay: Membrane potential, DiOC2(3) fluorescence; assay type: cell-based, Streptococcus pneumoniae; conditions: 16 μg/ml, pre-incubated 5 min; versus untreated and ampicillin
Protocol: (§1) To further examine the mechanism underlying the perturbation of the cell membrane of S. pneumoniae or S. aureus by the NCL compounds, the membrane potential of the cells was measured by fluorescence spectrometry using (DiOC2(3), essentially as described previously. Briefly, […] cells from an overnight HBA plate were grown in Todd-Hewitt broth supplemented with 1% yeast extract (THY) at 37°C, 5% CO2 until A600 nm = 0.5. […] The cuvette was then placed in a LS 55 Fluorescence Spectrometer (PerkinElmer) set at Ex. 488 nm/Em. 620 nm, with excitation and emission slit widths at 5 nm and 7 nm, respectively). […] All assays were performed at least twice.

[5] = test system: S. aureus ATCC49775; assay: Membrane potential, DiOC2(3) fluorescence; assay type: cell-based, Staphylococcus aureus; conditions: 16 μg/ml, pre-incubated 5 min; versus untreated and ampicillin
Protocol: as §1

[6] = LogD by gradient HPLC chromatographic method; assay type: physicochemical; conditions: pH 7.4
[7] = test system: MDBK; assay: In vitro cytotoxicity, WST-1; assay type: cell-based, bovine; conditions: Bos taurus, 24 h exposure, read-out: IC50 values ± SEM
Description: (§2) In order to ensure minimal off target mammalian cell cytotoxicity, we assayed NCL812, NCL195 and NCL219 for in vitro cytotoxicity using a panel of adherent mammalian cell lines: Caco-2 (human colorectal adenocarcinoma cell line), HEL 299 (non-cancerous human lung fibroblast cell line), Hep G2 (human hepatocellular carcinoma cell line), MDBK (normal bovine kidney cell line) and MCF7 (human mammary gland adenocarcinoma cell line). Cell lines were maintained in Dulbecco’s Modified Eagle’s Medium (DMEM; […] After 24 h incubation, media was removed, washed once with medium without antibiotics and fresh medium supplemented with 10% (vol/vol) FBS was added. […] Following exposure for 24 h, WST-1 reagent was added to each well at a final concentration of 10%. […] The IC50 value for each compound against each cell line was determined via non-linear regression (three parameters) using GraphPad Prism v6 software. The robustness of assays was confirmed with selected cell lines (Hep G2 and MDBK) seeded onto a 96–well Microwell Nunclon Delta Surface plate (Thermo Scientific Nunc; Cat No: 136101) at 5 × 10^4 cells per well.

[8] = test system: Hep G2; assay: Real-time cell viability, RealTime-Glo MT; assay type: cell-based, human; conditions: 2 or 8 μg/ml, up to 20 h post-treatment
[9] = test system: panel of mammalian cell lines (Caco-2, HEL 299, Hep G2, MDBK, MCF7); assay: In vitro cytotoxicity, WST-1, all cell lines tested; assay type: cell-based; conditions: lower bound over all the cell lines tested
Description: as §2

Cl.N=C(NN=Cc1ccc(Cl)cc1)NN=Cc1ccc(Cl)cc1 [NCL812, 2,2'-bis[(4-chlorophenyl)methylene] carbonimidic dihydrazide hydrochloride]
MIC90 ([1]; Enterococcus, VRE, S3 Table isolates, absence of FBS): 2 µg/mL | MIC ([1]; Enterococcus, VRE, VRE 1 (49 FR), 10% FBS): 32 µg/mL | MIC ([1]; Enterococcus, VRE, VRE 1 (49 FR), absence of FBS): 2 µg/mL | MIC ([1]; Enterococcus, VRE, VRE 2 (53 FR), 10% FBS): 32 µg/mL | MIC ([1]; Enterococcus, VRE, VRE 2 (53 FR), absence of FBS): 2 µg/mL | MIC ([1]; Enterococcus, VRE, VRE 3 (55 FR), 10% FBS): 32 µg/mL | MIC ([1]; Enterococcus, VRE, VRE 3 (55 FR), absence of FBS): 2 µg/mL | MIC ([1]; Enterococcus, VRE, VRE 4 (57 FR), 10% FBS): 32 µg/mL | MIC ([1]; Enterococcus, VRE, VRE 4 (57 FR), absence of FBS): 2 µg/mL | MIC ([1]; Enterococcus, VRE, VRE5 (58 FR), 10% FBS): 32 µg/mL | MIC ([1]; Enterococcus, VRE, VRE5 (58 FR), absence of FBS): 4 µg/mL | MIC ([1]; Enterococcus, VRE, VRE 6 (59 FR), 10% FBS): 32 µg/mL | MIC ([1]; Enterococcus, VRE, VRE 6 (59 FR), absence of FBS): 2 µg/mL | MIC ([1]; Enterococcus, VRE, VRE 7 (270 G), 10% FBS): 32 µg/mL | MIC ([1]; Enterococcus, VRE, VRE 7 (270 G), absence of FBS): 4 µg/mL | MIC ([1]; Enterococcus, VRE, VRE 8 (277 G), 10% FBS): 32 µg/mL | MIC ([1]; Enterococcus, VRE, VRE 8 (277 G), absence of FBS): 2 µg/mL | MIC ([1]; Enterococcus, VRE, VRE 9 (61 FR), 10% FBS): 32 µg/mL | MIC ([1]; Enterococcus, VRE, VRE 9 (61 FR), absence of FBS): 2 µg/mL | MIC ([1]; Enterococcus, VRE, VRE 10 (62 FR), 10% FBS): 32 µg/mL | MIC ([1]; Enterococcus, VRE, VRE 10 (62 FR), absence of FBS): 2 µg/mL | MIC ([1]; Enterococcus, VRE, VRE 11 (284 G), 10% FBS): 32 µg/mL | MIC ([1]; Enterococcus, VRE, VRE 11 (284 G), absence of FBS): 2 µg/mL | MIC ([1]; Enterococcus, VRE, VRE 12 (290 G), 10% FBS): 32 µg/mL | MIC ([1]; Enterococcus, VRE, VRE 12 (290 G), absence of FBS): 2 µg/mL | MIC ([1]; Enterococcus, VRE, VRE 13 (251 G), 10% FBS): 32 µg/mL | MIC ([1]; Enterococcus, VRE, VRE 13 (251 G), absence of FBS): 2 µg/mL | MIC ([1]; Enterococcus, VRE, VRE 14 (252 G), 10% FBS): 32 µg/mL | MIC ([1]; Enterococcus, VRE, VRE 14 (252 G), absence of FBS): 2 µg/mL | MIC ([1]; Enterococcus, VRE, VRE 15 (63 FR), 10% FBS): 32 µg/mL | MIC ([1]; Enterococcus, VRE, VRE 15 (63 FR), absence of FBS): 2 µg/mL | MIC ([1]; Enterococcus, VRE, VRE 16 (60 FR), 10% FBS): 32 µg/mL | MIC ([1]; Enterococcus, VRE, VRE 16 (60 FR), absence of FBS): 4 µg/mL | MIC ([1]; Enterococcus, VRE, VRE 17 (45 FR), 10% FBS): 32 µg/mL | MIC ([1]; Enterococcus, VRE, VRE 17 (45 FR), absence of FBS): 2 µg/mL | MIC ([1]; Enterococcus, VRE, VRE 18 (69 W), 10% FBS): 32 µg/mL | MIC ([1]; Enterococcus, VRE, VRE 18 (69 W), absence of FBS): 2 µg/mL | MIC ([1]; Enterococcus, VRE, VRE 19 (70 W), 10% FBS): 32 µg/mL | MIC ([1]; Enterococcus, VRE, VRE 19 (70 W), absence of FBS): 2 µg/mL | MIC ([1]; Enterococcus, VRE, VRE 20 (78 W), 10% FBS): 32 µg/mL | MIC ([1]; Enterococcus, VRE, VRE 20 (78 W), absence of FBS): 2 µg/mL | MIC range ([1]; S3 Table isolates, 10% FBS): 32 µg/mL | MIC range ([1]; S3 Table isolates, absence of FBS): 2 to 4 µg/mL | MIC ([2]; ATCC29212, 10% FBS): 32 µg/mL | MIC ([2]; ATCC29212, absence of FBS): 4 µg/mL | MBC [3]: 8 µg/mL | Effect on generated membrane potential [4]: large reduction in the magnitude of the generated membrane potential | Effect on generated membrane potential [5]: large reduction in the magnitude of the generated membrane potential | chromatographic logD [6]: 4.5 | IC50 [7]: 5.9 ± 0.1 µg/mL | Effect on cell viability (real-time) [8]: affected viability at 8 μg/ml | IC50 [9]: > 4 µg/mL

Reference: publication PMC5584945, “Evaluation of robenidine analog NCL195 as a novel broad-spectrum antibacterial agent” (PLoS ONE, 2017)
